Reference: patent US12077503B2, “Substituted cyclic amides and their use as herbicides” (FMC CORPORATION, priority 2015, dated 2024)

Key:
Format in all cases: in vivo
[1] = test system: ivy-leaved morning glory (Ipomoea hederacea); assay: Test G Post-Emergence Protocol; conditions: Ipomoea, post-emergence, 312 h, read-out: Morningglory, Ivy-leaved damage rating
Procedure, shortened: (§1)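 Damage was rated 13 days after treatment from 0 (none) to 100 (plant killed). Compound was applied as a spray at 15.625, 62.5 or 250 g/ha in 50:50 acetone/water containing 0.5% Tween 20, onto 8-day-old potted plants kept in a glasshouse (24/16 °C, 14 h light, 65% humidity).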

[2] = test system: redroot pigweed (Amaranthus retroflexus); assay: Test G Post-Emergence Protocol; conditions: Amaranthus retroflexus, post-emergence, 312 h, read-out: Pigweed, Redroot damage rating
Procedure, shortened: as §1

[3] = test system: velvetleaf (Abutilon theophrasti); assay: Test G Post-Emergence Protocol; conditions: Abutilon theophrasti, post-emergence, 312 h, read-out: Velvetleaf damage rating
Procedure, shortened: as §1

[4] = test system: barnyardgrass (Echinochloa crus-galli); assay: Test G Post-Emergence Protocol; conditions: Echinochloa crus-galli, post-emergence, 312 h, read-out: Barnyardgrass damage rating
Procedure, shortened: as §1

corn (Zea mays) [5] = assay: Test G Post-Emergence Protocol; conditions: Zea mays, post-emergence, 312 h, read-out: Corn damage rating
Procedure, shortened: as §1

[6] = test system: giant foxtail (Setaria faberi); assay: Test G Post-Emergence Protocol; conditions: Setaria faberi, post-emergence, 312 h, read-out: Foxtail, Giant damage rating
Procedure, shortened: as §1

[7] = test system: ivy-leaved morning glory (Ipomoea hederacea); assay: Test G Pre-Emergence Protocol; conditions: Ipomoea, pre-emergence, 312 h, evaluated after 13 days
Procedure, shortened: (§2)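 Herbicidal effect was rated 13 days post-application on a scale where 100 equals total damage. Spraying took place the day after sowing, using 15.625, 62.5 or 250 g/ha of compound in a 50:50 acetone/water solution with 0.5% Tween 20.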

[8] = test system: redroot pigweed (Amaranthus retroflexus); assay: Test G Pre-Emergence Protocol; conditions: Amaranthus retroflexus, pre-emergence, 312 h, evaluated after 13 days
Procedure, shortened: as §2

[9] = test system: velvetleaf (Abutilon theophrasti); assay: Test G Pre-Emergence Protocol; conditions: Abutilon theophrasti, pre-emergence, 312 h, evaluated after 13 days
Procedure, shortened: as §2

[10] = test system: barnyardgrass (Echinochloa crus-galli); assay: Test G Pre-Emergence Protocol; conditions: Echinochloa crus-galli, pre-emergence, 312 h, evaluated after 13 days
Procedure, shortened: as §2

corn (Zea mays) [11] = assay: Test G Pre-Emergence Protocol; conditions: Zea mays, pre-emergence, 312 h, evaluated after 13 days
Procedure, shortened: as §2

[12] = test system: giant foxtail (Setaria faberi); assay: Test G Pre-Emergence Protocol; conditions: Setaria faberi, pre-emergence, 312 h, evaluated after 13 days
Procedure, shortened: as §2

[13] = 15.625 g ai/ha, evaluated after 13 days (100=total damage to plant; 0=no damage to plant)
[14] = 62.5 g ai/ha, evaluated after 13 days, 100=total damage to plant, 0=no damage to plant
[15] = 250 g ai/ha, evaluated after 13 days, 100=total damage to plant, 0=no damage to plant

CN1CC(c2cc(C#N)cc(OC(F)(F)F)c2)C(C(=O)Nc2cccc(F)c2F)C1=O (stereo not drawn) [Compound 1694]
0%: pest or weed control at 15.625 g/ha [1, 13] | pest or weed control at 62.5 g/ha [1, 14] | pest or weed control at 250 g/ha [1, 15] | pest or weed control at 15.625 g/ha [2, 13] | pest or weed control at 62.5 g/ha [2, 14] | pest or weed control at 250 g/ha [2, 15] | pest or weed control at 15.625 g/ha [3, 13] | pest or weed control at 62.5 g/ha [3, 14] | pest or weed control at 250 g/ha [3, 15] | pest or weed control at 15.625 g/ha [4, 13] | pest or weed control at 62.5 g/ha [4, 14] | pest or weed control at 250 g/ha [4, 15] | plant injury at 15.625 g/ha (corn (Zea mays) [5]; [13]) | plant injury at 62.5 g/ha (corn (Zea mays) [5]; [14]) | plant injury at 250 g/ha (corn (Zea mays) [5]; [15]) | pest or weed control at 15.625 g/ha [6, 13] | pest or weed control at 62.5 g/ha [6, 14] | pest or weed control at 250 g/ha [6, 15] | pest or weed control at 15.625 g/ha ([7]; 15.625 g ai/ha, read-out: Morningglory, Ivy-leaved damage rating (100=total damage to plant; 0=no damage to plant)) | pest or weed control at 62.5 g/ha ([7]; 62.5 g ai/ha, 100=total damage to plant, 0=no damage to plant, read-out: Morningglory, Ivy-leaved damage rating) | pest or weed control at 250 g/ha ([7]; 250 g ai/ha, read-out: Morningglory, Ivy-leaved damage rating (100=total damage to plant; 0=no damage to plant)) | pest or weed control at 15.625 g/ha ([8]; 15.625 g ai/ha, read-out: Pigweed, Redroot damage rating (100=total damage to plant; 0=no damage to plant)) | pest or weed control at 62.5 g/ha ([8]; 62.5 g ai/ha, 100=total damage to plant, 0=no damage to plant, read-out: Pigweed, Redroot damage rating) | pest or weed control at 250 g/ha ([8]; 250 g ai/ha, read-out: Pigweed, Redroot damage rating (100=total damage to plant; 0=no damage to plant)) | pest or weed control at 15.625 g/ha ([9]; 15.625 g ai/ha, read-out: Velvetleaf damage rating (100=total damage to plant; 0=no damage to plant)) | pest or weed control at 62.5 g/ha ([9]; 62.5 g ai/ha, 100=total damage to plant, 0=no damage to plant, read-out: Velvetleaf damage rating) | pest or weed control at 250 g/ha ([9]; 250 g ai/ha, read-out: Velvetleaf damage rating (100=total damage to plant; 0=no damage to plant)) | pest or weed control at 15.625 g/ha ([10]; 15.625 g ai/ha, read-out: Barnyardgrass damage rating (100=total damage to plant; 0=no damage to plant)) | pest or weed control at 62.5 g/ha ([10]; 62.5 g ai/ha, 100=total damage to plant, 0=no damage to plant, read-out: Barnyardgrass damage rating) | pest or weed control at 250 g/ha ([10]; 250 g ai/ha, read-out: Barnyardgrass damage rating (100=total damage to plant; 0=no damage to plant)) | plant injury at 15.625 g/ha (corn (Zea mays) [11]; 15.625 g ai/ha, read-out: Corn damage rating (100=total damage to plant; 0=no damage to plant)) | plant injury at 62.5 g/ha (corn (Zea mays) [11]; 62.5 g ai/ha, 100=total damage to plant, 0=no damage to plant, read-out: Corn damage rating) | plant injury at 250 g/ha (corn (Zea mays) [11]; 250 g ai/ha, read-out: Corn damage rating (100=total damage to plant; 0=no damage to plant)) | pest or weed control at 15.625 g/ha ([12]; 15.625 g ai/ha, read-out: Foxtail, Giant damage rating (100=total damage to plant; 0=no damage to plant)) | pest or weed control at 62.5 g/ha ([12]; 62.5 g ai/ha, 100=total damage to plant, 0=no damage to plant, read-out: Foxtail, Giant damage rating) | pest or weed control at 250 g/ha ([12]; 250 g ai/ha, read-out: Foxtail, Giant damage rating (100=total damage to plant; 0=no damage to plant))
